# Legend:
# [1] = Pre-emerge herbicidal activity of mixtures with Compound 2-1 and other herbicides, observed 56 days after treatment; format: in vivo; settings: 2-1 alone 200 g ai/ha
# Protocol: (§1) The data in Table XI and Table XII show the results when compounds 1-1 and 2-1 were tested as mixtures with other herbicides. Observations in Table XI were made 64 days after treatment while those in Table XII were made 56 days after treatment.
# [2] = Pre-emerge herbicidal activity of mixtures with Compound 1-1 and other herbicides, observed 64 days after treatment; format: in vivo; settings: 1-1 alone 50 g ai/ha
# Protocol: as §1
Structure (SMILES),ABUTH pre-emerge herbicidal activity ([1]; ABUTH),AMARE pre-emerge herbicidal activity ([1]; AMARE),AMBEL pre-emerge herbicidal activity ([1]; AMBEL),CHEAL pre-emerge herbicidal activity ([1]; CHEAL),"CORN damage, pre-emerge ([1]; CORN)",SETVI pre-emerge herbicidal activity ([1]; SETVI),ABUTH pre-emerge herbicidal activity ([2]; ABUTH),AMARE pre-emerge herbicidal activity ([2]; AMARE),AMBEL pre-emerge herbicidal activity ([2]; AMBEL),CHEAL pre-emerge herbicidal activity ([2]; CHEAL),"CORN damage, pre-emerge ([2]; CORN)",SETVI pre-emerge herbicidal activity ([2]; SETVI)
Cn1c(=S)n(C)c(=O)n(-c2cc(Oc3ncccn3)c(Cl)cc2F)c1=O [2-1.],95,93,95,95,0,90,–,–,–,–,–,–
Cn1c(C(F)(F)F)cc(=O)n(-c2cc(Oc3ncccn3)c(Cl)cc2F)c1=S [1-1.],–,–,–,–,–,–,87,93,92,95,0,90

# From US6613718B2, “Aryl ether derivatives and processes for their preparation and herbicidal and desiccant compositions containing them” (Ishihara Sangyo Kaisha, Ltd., priority 2001, dated 2003)
